Entries after “also recorded” stand apart in the source; their conditions may differ. Marks after values point to notes of the source that are not given here.
Experiments:
[1] = tested on: IL-1β production in THP-1 cells; experiment: LPS and PMA-stimulated IL-1β production in THP-1 cells; assay type: cell-based, human; settings: for effect on stimulated IL-1β production (in words): 10^−7 to 10^−4 M
Experimental: The human monocytic cell line THP-1 is obtained from the Cell Culture Unit of the University of Granada (Granada, Spain) (ECACC reference number: 88081201) and used to assay the effects of the different compounds on IL-1 production. These cells are cultured in RPMI 1640 (Life Technologies, Paisley, UK) supplemented with 10% fetal bovine serum (Life Technologies), 2 mM glutamine and 0.05 mM mercaptoethanol in a humidified 5% CO2 atmosphere at 37° C. Cells are seeded onto 24-well plates at a density of 2×10^6 cells ml^−1 and pre-incubated during 30 min with the different test compounds, at concentrations ranging from 10^−7 to 10^−4 M, and then stimulated with 1 μg ml^−1 LPS and 1 μM phorbol 12-myristate 13-acetate (PMA). After 20 h, plates are centrifuged at 1,000 g for 10 min and supematants are collected and stored at −80° C. for the determination of IL-1 levels by EIA using a kit system (Amersham Pharmacia Biotech, Buckinghamshire, UK).

[2] = tested on: IL-8 production in HT-29 cells; experiment: LPS-stimulated IL-8 production in HT-29 cell cultures; assay type: cell-based, human; settings: for effect on IL-8 basal production: no LPS
Experimental: The human colon adenocarcinoma cell line HT-29, obtained from the Cell Culture Unit of the University of Granada (Granada, Spain) (ECACC reference number: 91072201), is used as a model of intestinal epithelium to test the ability of the different compounds to inhibit the production/release of IL-8. Cells are grown in Dulbecco's modified Eagle's medium supplemented with 10% fetal bovine serum (Boehringer Mannheim, Mannheim, Germany), 2 mM L-glutamine, 50,000 u l^−1 penicillin/streptomycin and 2.5 mg ml^−1 amphotericin B, in a humidified 5% CO2 atmosphere at 37° C. Cells are seeded into 12-well plates and grown to confluence. […] After 20 h, supernatants are collected, centrifuiged to remove debris at 7,000 g for 10 min and stored at −80° C. for the determination of IL-8 levels by enzyme-linked immunosorbent assay (Biosource International, Nivilles, Belgium).

[3] = tested on: TNF-α production in U-937 cells; experiment: LPS-stimulated TNF-α production in PMA-differentiated U-937 cells; assay type: cell-based, human; settings: for effect on TNF-α production (in words): differentiated U-937 cells, LPS 4 h, 10^−6 to 10^−4 M
Experimental: The cells are cultured in RPMI 1640 (Life Technologies) supplemented with 10% fetal bovine serum and 2 mM glutamine in a humidified 5% CO2 atmosphere at 37° C. Cell concentration is adjusted to 0.5×10^6 cells ml, and monocytic differentiation is induced by incubation with 20 ng ml^−1 PMA for 24 h. After that, cells are harvested, centrifuged at 200 g for 5 min and plated onto 48-well plates at 210^6 cells ml^−1, pre-incubated for 30 min with the test compounds at concentrations ranging from 10^−6 to 10^−4 M, and stimulated with 0.1 μg ml^−1 LPS. After 4 h, plates are centrifuged at 1,000 g for 10 min and supernatants are collected and stored at −80° C. for the quantification of the TNF-α released in the culture medium by EIA using a commercial kit (R&D, Minneapolis, Minn., USA).

[4] = tested on: TNBS-induced rat colitis; settings: cited from earlier work
[5] = tested on: colonic IL-1β levels; experiment: Reactivated TNBS colitis in rats: colonic IL-1β levels; assay type: in vivo, rat; settings: FIG. 5
Experimental: (§1) Colitis is induced by the method originally described by Morris et al. (1989), with minor modifications. Female Wistar rats (180-220 g) obtained from the Laboratory Animal Service of the University of Granada (Granada, Spain) are randomly distributed in several experimental groups. Animals are housed in makrolon cages (3-4 rats per cage) and maintained in an air-conditioned animal room with a 12 h light-dark cycle, and they are provided with free access to tap water and food (Panlab A.04). Animals are fasted overnight and anaesthetized with halothane. Under anesthesia, animals received 10 mg of TNBS dissolved in 0.25 ml of 50% ethanol (v v^−1) by means of a Teflon cannula inserted 8 cm through the anus. […]
(§2) Animals are sacrificed with an overdose of halothane, and the entire colon is removed. […] Each specimen is weighed and its length measured under a constant load (2 g). […] MPO activity is measured according to the technique described by Krawisz et al. (1984); the results are expressed as MPO units per gram of wet tissue and one unit of MPO activity is defined as that degrading 1 μmol min^−1 of hydrogen peroxide at 25° C. […] The supernatants are frozen at −80° C. until assay and cytokines are quantified by enzyme-linked immunosorbent assay (Amersham Pharmacia Biotech). […]

[6] = tested on: reactivated TNBS colitis; experiment: Reactivated TNBS colitis in rats: macroscopic colonic damage; assay type: in vivo, rat
Experimental: (§3) Colitis is induced by the method originally described by Morris et al. (1989), with minor modifications. Female Wistar rats (180-220 g) obtained from the Laboratory Animal Service of the University of Granada (Granada, Spain) are randomly distributed in several experimental groups. Animals are housed in makrolon cages (3-4 rats per cage) and maintained in an air-conditioned animal room with a 12 h light-dark cycle, and they are provided with free access to tap water and food (Panlab A.04). Animals are fasted overnight and anaesthetized with halothane. Under anesthesia, animals received 10 mg of TNBS dissolved in 0.25 ml of 50% ethanol (v v^−1) by means of a Teflon cannula inserted 8 cm through the anus. During and after TNBS administration rats are kept in a head-down position until they recovered from anesthesia, and then returned to their cage. […] Two additional groups are also included for reference: a non colitic group receiving intracolonically 0.25 ml of phosphate buffer saline (pH=7.4) and another colitic group which received only the first dose of TNBS (control group without relapse); both groups are orally administered with vehicle.
Animals are sacrificed with an overdose of halothane, and the entire colon is removed. The colonic segments are placed on an ice-cold plate, cleaned of fat and mesentery, and blotted on filter paper. Each specimen is weighed and its length measured under a constant load (2 g). […] The colon is subsequently divided longitudinally in 3 pieces for biochemical determinations. […] MPO activity is measured according to the technique described by Krawisz et al. (1984); the results are expressed as MPO units per gram of wet tissue and one unit of MPO activity is defined as that degrading 1 μmol min^−1 of hydrogen peroxide at 25° C. Samples for the determination of TNF-α and IL-1 synthesis are immediately weighed, minced on an ice-cold plate and suspended in a tube with 10 mM sodium phosphate buffer, pH=7.4, 1:5 w v^−1. The tubes are placed in a shaking water bath at 37° C. for 20 min and centrifuged at 9000 g for 30 s at 4° C. The supernatants are frozen at −80° C. until assay and cytokines are quantified by enzyme-linked immunosorbent assay (Amersham Pharmacia Biotech). All biochemical measurements are completed within one week from the time of sample collection and are performed in duplicate.

[7] = tested on: colonic TNF-α levels; experiment: Reactivated TNBS colitis in rats: colonic TNF-α levels; assay type: in vivo, rat; settings: FIG. 6
Experimental: as §1, §2

[8] = tested on: colonic myeloperoxidase (MPO) activity; experiment: Reactivated TNBS colitis in rats: colonic MPO activity; assay type: in vivo, rat
Experimental: as §3
Animals are sacrificed with an overdose of halothane, and the entire colon is removed. The colonic segments are placed on an ice-cold plate, cleaned of fat and mesentery, and blotted on filter paper. Each specimen is weighed and its length measured under a constant load (2 g). […] The colon is subsequently divided longitudinally in 3 pieces for biochemical determinations. […] MPO activity is measured according to the technique described by Krawisz et al. (1984); the results are expressed as MPO units per gram of wet tissue and one unit of MPO activity is defined as that degrading 1 μmol min^−1 of hydrogen peroxide at 25° C. […] The supernatants are frozen at −80° C. until assay and cytokines are quantified by enzyme-linked immunosorbent assay (Amersham Pharmacia Biotech). […]

[9] = tested on: TNF-α production in mononuclear cells; experiment: TNF-α production in mononuclear cells (FIG. 8); assay type: cell-based; settings: 10 uM
Text: FIG. 8. Effects of UR-12746-S in the production of TNF-α in mononuclear cells.

[10] = tested on: HT-29, THP-1 and U-937 cells; settings: any assayed concentration, any cell types used
Experimental: Test compounds are prepared at 600 μM stock solution in PBS and further working dilutions are performed in culture medium. Percentage inhibition of cytokine production is calculated for every drug concentration.
The test compounds are prepared at 600 μM stock solution in PBS and further working dilutions are performed in culture medium. Percentage inhibition of cytokine production is calculated for every drug concentration.

[11] = two weeks after the initial colonic challenge
[12] = 25 mg kg^−1 oral daily, 3 wk (after second TNBS)
[13] = 25 mg kg^−1 oral daily, 4 wk (after second TNBS)
[14] = 50 mg kg^−1 oral daily, 3 wk (after second TNBS)
[15] = 50 mg kg^−1 oral daily, 4 wk (after second TNBS)

Nc1ccc(O)c(C(=O)O)c1 [5-ASA, 5-aminosalicylic acid]
effect on stimulated IL-1β production (in words) [1]: only a weak effect; also recorded: weak inhibitory activity | inhibition of stimulated IL-1β production ([1]; the different concentrations assayed): 10-20% | inhibition at 1 µM ([2]; Homo sapiens, LPS, achieved at 10^−6 M, not higher up to 10^−4 M, read-out: maximum inhibitory effect on LPS-stimulated IL-8 production): 30 to 40% | effect on IL-8 basal production [2]: no significant effect | effect on TNF-α production (in words) [3]: devoid of any significant effect; also recorded: inactive

Cc1nc2cnccc2n1CC1CCN(C(=O)C=C(c2ccccc2)c2ccc(/N=N\c3ccc(O)c(C(=O)O)c3)cc2)CC1 [UR-12746 free acid, (Z)-2-hydroxy-5-[[4-[3-[4-[(2-methyl-1H-imidazo[4,5-c]pyridin-1-yl)methyl]-1-piperidinyl]-3-oxo-1-phenyl-1-propenyl]phenyl]azo] benzoic acid]
IL-1β production ([4]; 50-100 mg/kg, 4 week time span): reduce IL-1β production | Platelet Activating Factor (PAF) activity ([4]; 50-100 mg/kg, 4 week time span): inhibit Platelet Activating Factor (PAF) activity | colonic myeloperoxidase (MPO) activity ([4]; 50-100 mg/kg, 4 week time span): reduce colonic myeloperoxidase (MPO) activity | LTB4 production ([4]; only at 100 mg/kg and only after 3 and 4 weeks of administration): reduce LTB4 production | colonic damage ([4]; only at the 100 mg/kg dosage): significant reduction in colonic damage

Cc1nc2cnccc2n1CC1CCN(C(=O)C=C(c2ccccc2)c2ccc(/N=N\c3ccc(O)c(C(=O)[O-])c3)cc2)CC1.[Na+] [UR-12746-S, (Z)-2-hydroxy-5-[[4-[3-[4-[(2-methyl-1H-imidazo[4,5-c]pyridin-1-yl)methyl]-1-piperidinyl] -3-oxo-1-phenyl-1-propenyl]phenyl]azo] benzoic acid sodium salt]
colonic IL-1β levels after second administration of TNBS ([5]; after second TNBS): effectively prevents the increase in IL-1β levels | colonic IL-1β levels [5, 11]: decrease colonic IL-1β levels significantly | colonic weight/length ratio, mean ± s.e.mean ([6]; 25 mg kg^−1 oral daily, 1 wk): 146.6 ± 8.1 mg/cm | damage score (0-10), median (range) ([6]; 25 mg kg^−1 oral daily, 1 wk): 5.5 (4-6) | colonic weight/length ratio, mean ± s.e.mean ([6]; 25 mg kg^−1 oral daily, 2 wk): 143.6 ± 4.9 mg/cm | damage score (0-10), median (range) ([6]; 25 mg kg^−1 oral daily, 2 wk): 5 (4-5) | colonic weight/length ratio, mean ± s.e.mean [6, 12]: 150.5 ± 4.3 mg/cm | damage score (0-10), median (range) [6, 12]: 5 (4-6) | colonic weight/length ratio, mean ± s.e.mean [6, 13]: 143.2 mg/cm | damage score (0-10), median (range) [6, 13]: 5 (2-6) | colonic weight/length ratio, mean ± s.e.mean ([6]; 50 mg kg^−1 oral daily, 1 wk): 137.0 ± 8.4 mg/cm | damage score (0-10), median (range) ([6]; 50 mg kg^−1 oral daily, 1 wk): 4.5 (4-6) | colonic weight/length ratio, mean ± s.e.mean ([6]; 50 mg kg^−1 oral daily, 2 wk): 120.0 ± 5.9 mg/cm | damage score (0-10), median (range) ([6]; 50 mg kg^−1 oral daily, 2 wk): 4 (3-5) | colonic weight/length ratio, mean ± s.e.mean [6, 14]: 142.3 ± 3.1 mg/cm | damage score (0-10), median (range) [6, 14]: 4 (3-5)* | colonic weight/length ratio, mean ± s.e.mean [6, 15]: 110.8 mg/cm | damage score (0-10), median (range) [6, 15]: 3 (2-4)* | colonic macroscopic damage score and colonic weight/length ratio after reactivation, compared with control colitic animals without relapse ([6]; after second TNBS dose): no statistical differences | colonic TNF-α levels after second administration of TNBS ([7]; 50 mg kg^−1, after second TNBS): significantly reduced | colonic TNF-α levels [7, 11]: without showing any significant effect | colonic MPO activity after colitis relapse ([8]; 25 and 50 mg kg^−1, after second TNBS, FIG. 4): prevent the increased activity | colonic MPO activity ([8]; 25 and 50 mg kg^−1, first two weeks after the initial TNBS, FIG. 4): reduction in colonic MPO activity | effect in reducing MPO activity in comparison with sulphasalazine ([8]; same doses, same experimental conditions): higher effect | inhibition of TNF-α production compared with UR-12715 or a combination of UR-12715 and 5-ASA [9]: to a greater extent | potency in inhibiting TNF-α production compared to the individual components, a combination of the components and sulfasalazine ([3]; U-937 cells, FIG. 7): more potent

Cc1nc2cnccc2n1CC1CCN(C(=O)C=C(c2ccccc2)c2ccc(N=Nc3ccc(O)c(C(=O)O)c3)cc2)CC1 [trans-1-[[1-[3-[4-(4-hydroxy-3-carboxyphenylazo)phenyl]-3-phenylpropenoyl]-4-piperidyl]methyl]-1H-2-methylimidazole [4,5-c] pyridine]
viability (trypan blue exclusion) [10]: higher than 95%

(Z)-1-[4-(3-aminophenyl)-1-oxo-3-phenyl-2-propenyl]-4-[(2-methyl-lH-imidazo[4,5-c]pyridin-1-yl)methyl] piperidine [UR-12715]
effect on stimulated IL-1β production (in words) [1]: inhibited; also recorded: inhibits the stimulated cytokine production in a concentration-dependent way | effect on IL-8 basal production [2]: no significant effect | effect on TNF-α production (in words) [3]: inhibited; also recorded: concentration-dependent inhibitory effect

From patent publication US20030119792A1, “Method of inhibiting the production and/or effects of intestinal pro-inflammatory cytokines, prostaglandins and others” (priority 2001, published 2003)
